Results: PubChem BioAssay (NCI)
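Compound exposure: 48 hours, 5 concentrations, 96-well plates. GI50 is the concentration that inhibits growth by half. TGI marks complete inhibition of growth.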

Experiments:
Assay in all cases: NCI tumour cell line growth inhibition, 48 h
[1] = system: TK-10 renal
[2] = system: IGROV1 ovarian
[3] = system: NCI-H23 lung
[4] = system: HCC-2998 colon
[5] = system: HOP-62 NSCLC
[6] = system: M14 melanoma
[7] = system: A498 renal
[8] = system: MDA-MB-435
[9] = system: NCI/ADR-RES ovarian
[10] = system: A549 NSCLC
[11] = system: RXF 393 renal
[12] = system: COLO 205 colon
[13] = system: BT-549 breast
[14] = system: HOP-92 NSCLC
[15] = system: MOLT-4 leukemia
[16] = system: SK-OV-3 ovarian
[17] = system: PC-3 prostate
[18] = system: SF-539 CNS
[19] = system: SF-268 CNS
[20] = system: SK-MEL-2 melanoma
[21] = system: UACC-257 melanoma
[22] = system: NCI-H460 lung
[23] = system: K-562 leukemia
[24] = system: CCRF-CEM leukemia
[25] = system: SNB-19 CNS
[26] = system: T-47D breast
[27] = system: UACC-62 melanoma
[28] = system: SNB-75 CNS
[29] = system: NCI-H226 lung
[30] = system: SK-MEL-5 melanoma
[31] = system: SW-620 colon
[32] = system: LOX IMVI melanoma
[33] = system: SK-MEL-28 melanoma
[34] = system: RPMI-8226 leukemia
[35] = system: UO-31 renal
[36] = system: HCT-116 colon
[37] = system: HS 578T breast
[38] = system: SF-295 CNS
[39] = system: MDA-MB-231 breast
[40] = system: DU-145 prostate
[41] = system: ACHN renal
[42] = system: MCF7 breast
[43] = system: SR leukemia
[44] = system: SN12C renal
[45] = system: OVCAR-4 ovarian
[46] = system: CAKI-1 renal
[47] = system: U251 CNS
[48] = system: HL-60(TB) leukemia
[49] = system: HCT-15 colon
[50] = system: KM12 colon
[51] = system: NCI-H522 lung
[52] = system: 786-0 renal
[53] = system: OVCAR-8 ovarian
[54] = system: HT29 colon
[55] = system: EKVX NSCLC
[56] = system: OVCAR-5 ovarian

COc1ccc(Cn2cc3c(c2-c2cc(OC)c(OC)c(OC)c2)CCCc2cnoc2-3)cc1N
GI50 [1]: 98300 nM | TGI [1]: > 100000 nM | GI50 [2]: 1040 nM | TGI [2]: > 100000 nM | GI50 [3]: 1750 nM | TGI [3]: > 100000 nM | GI50 [4]: 1670 nM | TGI [4]: > 32000 nM | GI50 [5]: 814 nM | TGI [5]: > 100000 nM | GI50 [6]: 501 nM | TGI [6]: > 100000 nM | GI50 [7]: 407 nM | TGI [7]: 2880 nM | GI50 [8]: 240 nM | TGI [8]: 633 nM | GI50 [9]: 699 nM | TGI [9]: > 100000 nM | GI50 [10]: 1450 nM | TGI [10]: > 100000 nM | GI50 [11]: 412 nM | TGI [11]: 3700 nM | GI50 [12]: 532 nM | TGI [12]: 2140 nM | GI50 [13]: 436 nM | TGI [13]: 2730 nM | GI50 [14]: 432 nM | TGI [14]: 4820 nM | GI50 [15]: 1110 nM | TGI [15]: > 100000 nM | GI50 [16]: 957 nM | TGI [16]: > 100000 nM | GI50 [17]: 463 nM | TGI [17]: > 100000 nM | GI50 [18]: 426 nM | TGI [18]: 4320 nM | GI50 [19]: 1140 nM | TGI [19]: > 100000 nM | GI50 [20]: 651 nM | TGI [20]: > 100000 nM | GI50 [21]: 578 nM | TGI [21]: > 100000 nM | GI50 [22]: 410 nM | TGI [22]: > 100000 nM | GI50 [23]: 404 nM | TGI [23]: > 100000 nM | GI50 [24]: 430 nM | TGI [24]: > 100000 nM | GI50 [25]: 734 nM | TGI [25]: > 100000 nM | GI50 [26]: 590 nM | TGI [26]: > 100000 nM | GI50 [27]: 489 nM | TGI [27]: > 100000 nM | GI50 [28]: 384 nM | TGI [28]: 9220 nM | GI50 [29]: 1590 nM | TGI [29]: > 100000 nM | GI50 [30]: 1010 nM | TGI [30]: > 37200 nM | GI50 [31]: 449 nM | TGI [31]: > 100000 nM | GI50 [32]: 643 nM | TGI [32]: > 100000 nM | GI50 [33]: 3050 nM | TGI [33]: > 67700 nM | GI50 [34]: 935 nM | TGI [34]: > 33400 nM | GI50 [35]: 761 nM | TGI [35]: > 100000 nM | GI50 [36]: 423 nM | TGI [36]: > 100000 nM | GI50 [37]: 404 nM | TGI [37]: 6400 nM | GI50 [38]: 468 nM | TGI [38]: > 100000 nM | GI50 [39]: 1580 nM | TGI [39]: > 100000 nM | GI50 [40]: 1450 nM | TGI [40]: > 100000 nM | GI50 [41]: 669 nM | TGI [41]: > 100000 nM | GI50 [42]: 392 nM | TGI [42]: > 100000 nM | GI50 [43]: 405 nM | TGI [43]: > 100000 nM | GI50 [44]: 1750 nM | TGI [44]: > 100000 nM | GI50 [45]: 5130 nM | TGI [45]: > 100000 nM | GI50 [46]: 491 nM | TGI [46]: > 100000 nM | GI50 [47]: 768 nM | TGI [47]: > 100000 nM | GI50 [48]: 333 nM | GI50 [49]: 543 nM | TGI [49]: > 100000 nM | GI50 [50]: 632 nM | TGI [50]: > 100000 nM | GI50 [51]: 306 nM | TGI [51]: 1530 nM | GI50 [52]: 823 nM | TGI [52]: > 100000 nM | GI50 [53]: 2140 nM | TGI [53]: > 100000 nM | GI50 [54]: 442 nM | TGI [54]: > 100000 nM | GI50 [55]: 2430 nM | TGI [55]: > 100000 nM | GI50 [56]: 1840 nM | TGI [56]: > 100000 nM
